The text below walks through data of ChEMBL document CHEMBL4219083, “Reduction of Circulating Cancer Cells and Metastases in Breast-Cancer Models by a Potent EphA2-Agonistic Peptide-Drug Conjugate” (J Med Chem, 2018).

The source made the active and inactive calls. No cut-off for these calls is given here.

Data set [1] has as its system MDA-MB-231. In words: Antimetastatic activity against human MDA-MB-231 cells xenografted in NOD-scid mouse assessed as reduction in circulating tumor cells at 24.5 mg/kg, iv administered thrice per week for 2 weeks immunofluorescent staining-based assay. It counts as functional, organism-based. A general note: In xenograft studies the graft and the host belong to different species.

In a further data set the test system is Mus musculus. In words: Toxicity in BALB/c mouse implanted with mouse 4T1 cells assessed as reduction in body weight at 24.5 mg/kg administered thrice per week for 2 weeks after 15 days post implantation. The class given is organism-based. Particulars: in vivo.
Data set [2] relates to 4T1. In words: Antimetastatic activity against mouse 4T1 cells implanted in BALB/c mouse assessed as reduction in gross lung-metastasis count at 24.5 mg/kg administered thrice per week for 2 weeks after 15 days post implantation relative to control. Set-up: scale not given: the % may be the effect or the level left. It counts as functional.
Data set [3] relates to MDA-MB-231. Kind of data set: Antimetastatic activity against human MDA-MB-231 cells xenografted in NOD-scid mouse assessed as reduction in tumor burden at 24.5 mg/kg, iv administered thrice per week for 2 weeks. The class given is functional, organism-based.
Data set [4] deals with 4T1. In words: Antimetastatic activity against mouse 4T1 cells implanted in BALB/c mouse assessed as reduction in CD31-expressing vasculature at 24.5 mg/kg administered thrice per week for 2 weeks after 15 days post implantation by immunostaining-based assay. The class given is functional, organism-based.
Data set [5] relates to 4T1. Kind of data set: Antimetastatic activity against mouse 4T1 cells implanted in BALB/c mouse assessed as reduction in microscopic lung nodules at 24.5 mg/kg administered thrice per week for 2 weeks after 15 days post implantation by H and E staining-based assay. The class given is functional, organism-based.

As for `CCCC[C@H](NC(=O)[C@@H]1CCCN1C(=O)[C@@H](NC(=O)[C@H](CO)NC(=O)[C@H](CC(=O)O)NC(=O)[C@@H]1CCCN1C(=O)[C@H](Cc1ccc(O)cc1)NC(=O)[C@H](C)NC(=O)[C@H](CO)NC(=O)COc1ccc(F)c(Cl)c1)C(C)C)C(=O)N[C@@H](CCO)C(=O)N[C@@H](CO)C(=O)NCC(=O)NCCCC[C@H](NC(=O)CNC(=O)[C@H](CO)NC(=O)[C@H](CCO)NC(=O)[C@H](CCCC)NC(=O)[C@@H]1CCCN1C(=O)[C@@H](NC(=O)[C@H](CO)NC(=O)[C@H](CC(=O)O)NC(=O)[C@@H]1CCCN1C(=O)[C@H](Cc1ccc(O)cc1)NC(=O)[C@H](C)NC(=O)[C@H](CO)NC(=O)COc1ccc(F)c(Cl)c1)C(C)C)C(=O)NCC(=O)N[C@H](CCCCNC(=O)CCCc1cn(CCCCCC(=O)O[C@@H](C(=O)O[C@H]2C[C@@]3(O)[C@@H](OC(=O)c4ccccc4)[C@@H]4[C@]5(OC(C)=O)CO[C@@H]5C[C@H](O)[C@@]4(C)C(=O)[C@H](OC(C)=O)C(=C2C)C3(C)C)[C@@H](NC(=O)c2ccccc2)c2ccccc2)nn1)C(=O)NCC(=O)O`, the result in the data set with MDA-MB-231 [1], in the data set on MDA-MB-231 [3], with 4T1 [4] and with 4T1 [5] was Active. Moreover, the Activity result is reported as “Non-Toxic” in the data set on Mus musculus and >75% with 4T1 [2].
